Literature values, collected in patent US20060024740A1 (priority 2002, published 2006).

Columns and labels:
Tapesia yallundae = test system: Tapesia yallundae; design: key: S = Sensitive; R = Resistant
Tapesia acuformis = test system: Tapesia acuformis; design: key: S = Sensitive; R = Resistant

Compound	Fungicide Sensitivity (Tapesia yallundae)	Fungicide Sensitivity (Tapesia acuformis)
CC(C)(C)C(O)C(Oc1ccc(Cl)cc1)n1cncn1 (centres unmarked) [Triadimenol, triadimenol]	R and S	R
COC(=O)Nc1nc2ccccc2[nH]1 [Carbendazim, carbendazim]	R	S and R
CCCN(CCOc1c(Cl)cc(Cl)cc1Cl)C(=O)n1ccnc1 [Prochloraz]	R and S	S and R
Cc1cc(C2CC2)nc(Nc2ccccc2)n1 [Cyprodinil]	S	S
